Experiments:
Assay type in all cases: physicochemical
[1] = LNP size and polydispersity, Zetasizer Ultra
Method in brief: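 Lipids dissolved in ethanol were combined with mRNA solution at a 1:3 volume ratio on a NanoAssemblr Ignite at 9 mL/min total flow. Particles were dialyzed in Slide-A-Lyzer G2 cassettes (10 k MWCO) against 1×PBS, then overnight at 4° C., concentrated with Amicon Ultra filters (100 k MWCO), and measured for size and polydispersity on a Zetasizer Ultra.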

[2] = TNS (pKa) assay, apparent LNP pKa; conditions: Example 5 LNP lipid:DOPE:Plant Cholesterol:DMPE-PEG2k 35:16:46.5:2.5, FLUC/EPO 1:1 mRNA, N:P 6:1
Method in brief: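 LNPs (0.04 mg/mL mRNA) mixed with TNS reagent (0.3 mM stock in DMSO) in 20 phosphate/borate/citrate/150 mM NaCl buffers spanning pH 3.0-12.0, in triplicate. Fluorescence read at 321/445 nm, fitted to a 4-parameter sigmoid; apparent pKa is the pH of half-maximal fluorescence.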

[3] = mRNA encapsulation efficiency, Quant-iT RiboGreen RNA Assay; conditions: Example 5 LNP lipid:DOPE:Plant Cholesterol:DMPE-PEG2k 35:16:46.5:2.5, FLUC/EPO 1:1 mRNA, N:P 6:1
[4] = Example 5 LNP lipid:DOPE:Plant Cholesterol:DMPE-PEG2k 35:16:46.5:2.5, FLUC/EPO 1:1 mRNA, N:P 6:1
[5] = LNP ionizable lipid:DSPC:Plant Chol.:DMPE-PEG2k 50:10:38.5:1.5

Q: What does the source list for `CCCCCCCCCCCOC(=O)CCCCCN(CCCCCCCC(=O)OC(CCCCCCCC)CCCCCCCC)CCNC(=O)CC(=O)NCCN(CCCCCCCC(=O)OC(CCCCCCCC)CCCCCCCC)CCCCCC(=O)OCCCCCCCCCCC` [Compound 2220, 1-octylnonyl 8-[2-[[3-[2-[[8-(1-octylnonoxy)-8-oxo-octyl]-(6-oxo-6-undecoxy-hexyl)amino]ethylamino]-3-oxo-propanoyl]amino]ethyl-(6-oxo-6-undecoxy-hexyl)amino]octanoate]?
A: PDI [1, 4]: 0.17; Size (nm) [1, 4]: 71.3 nm; PDI [1, 5]: 0.03; Size (nm) [1, 5]: 89.17 nm; pKa (TNS) [2]: 6.02; % EE [3]: 94.4%

Q: Which PDI [1, 4] does the source give for `CCCCCCCCCCCOC(=O)CCCCCN(CCCCCCCC(=O)OC(CCCCCCCC)CCCCCCCC)CCNC(=O)NCCN(CCCCCCCC(=O)OC(CCCCCCCC)CCCCCCCC)CCCCCC(=O)OCCCCCCCCCCC` [Compound 2246, 1-octylnonyl8-[2-[2-[[8-(1-octylnonoxy)-8-oxo-octyl]-(6-oxo-6-undecoxy-hexyl)amino]ethylcarbamoylamino]ethyl-(6-oxo-6-undecoxy-hexyl)amino]octanoate] here?
A: 0.05

Q: What about the “Size (nm)” value [1, 4] of the same compound?
A: 62.7 nm

Q: And the “pKa (TNS)” value [2]?
A: 6.63

Q: What about the “% EE” value [3] of the same compound?
A: 94.9%

— US20250051263A1, “NOVEL IONIZABLE LIPIDS AND LIPID NANOPARTICLES AND METHODS OF USING THE SAME” (Sail Biomedicines, Inc., priority 2021, published 2025)
